Experimental data published in patent publication US10155742B2, “Halofuginol derivatives and their use in cosmetic and pharmaceutical compositions” (President and Fellows of Harvard College, priority 2012, dated 2018).

Tests used:
[1] = test system: primary human prostate stromal (hPrSc) cells, col1a1; test: Type I collagen (col1a1) mRNA in primary human prostate stromal cells; assay type: cell-based; details: treated twice for 48 hours, FIG. 27
Method: Primary human prostate stromal (hPrSc) cells were left in low-serum media (0.2%) for 24 hours, and treated consecutively twice for 48 hours, halofuginone (HF) or halofuginol (HFol) at the concentrations indicated. Relative mRNA levels of the myofibroblastic markeralpha 1 collagen type 1 (col1a1) was measured by quantitative real-time PCR using glyceraldehyde-3-phosphate dehydrogenase (GAPDH) as internal control.

dermal ECM deposition = details: intraperitoneally, added to food, or applied locally; Pines et al. 2003; cited from earlier work
[2] = target: T1, ProRS (amino acids 998-1513 of human EPRS) (Homo sapiens, UniProt P07814); test: [3H]-HFol binding to immobilized ProRS; details: FIG. 3A
T1 construct: Purified 6-his tagged ProRS (amino acids 998-1513 of human EPRS) was immobilized on N-NTA beads; made in house; host or cells: E. coli BL21(DE3), plasmid pKS509
T1 sequence (P07814 998-1512 limits assumed): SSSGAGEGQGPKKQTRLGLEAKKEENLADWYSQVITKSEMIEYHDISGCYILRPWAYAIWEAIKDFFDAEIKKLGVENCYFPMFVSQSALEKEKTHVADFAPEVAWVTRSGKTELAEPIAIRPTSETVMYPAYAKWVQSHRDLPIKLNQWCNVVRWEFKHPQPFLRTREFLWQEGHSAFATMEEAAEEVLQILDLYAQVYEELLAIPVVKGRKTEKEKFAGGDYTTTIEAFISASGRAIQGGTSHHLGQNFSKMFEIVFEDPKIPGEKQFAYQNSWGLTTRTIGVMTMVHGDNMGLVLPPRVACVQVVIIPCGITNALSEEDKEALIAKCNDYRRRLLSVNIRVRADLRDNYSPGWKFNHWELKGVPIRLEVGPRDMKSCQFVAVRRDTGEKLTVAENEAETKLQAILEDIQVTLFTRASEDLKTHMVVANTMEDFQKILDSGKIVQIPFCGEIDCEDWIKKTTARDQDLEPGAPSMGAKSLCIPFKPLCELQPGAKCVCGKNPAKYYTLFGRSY
Method: B) [^3H]-HFol binding was assayed as described above in the presence of indicated concentrations of proline. […] IMR90 lung fibroblasts were treated with a siRNAs directed against EPRS (Dharmacon) or a control siRNA mixture for 48 hours, and then treated with HF for 2 hours (pGCN2) and examined for EPRS protein levels, GCN2 total protein and phospho-GCN2 by Western blot. D) EPRS depleted IMR90 cells were compared to control cells with respect to HF induction of the AAR marker CHOP by Q-PCR. Equal concentrations of total cellular protein were loaded in each Western blot lane. CHOP expression was standardized to expression of phosphoglycerate kinase 1 (PGK1) and glyceraldehyde-3-phosphate-dehydrogenase (GAPDH). Data shown are representative of three separate experiments.
Prolyl sulfamoyl adenosine (ProSAd) or alanyl sulfamoyl adenosine (AlaSAd), analogs of the corresponding aminoacyl adenylate, were coincubated with [^3H]-HFol as in FIG. 2. […] Binding of [^3H]-HFol was assayed as in FIG. 3, except that the nucleotide type and concentration was varied as indicated.
To examine HF binding to ProRS, ^3H HFol was synthesized by American Radiochemicals (St. Louis) by reduction of MAZ1310 (3) at the ketone with NaB^3H4, followed by removal of the Boc protecting group with 10% trifluoroacetic acid in dichloromethane, and HPLC purification of the ^3H HFol. 100 nM ^3H HFol was incubated with ProRS immobilized on Ni-NTA beads (Pierce) in 50 mM Tris pH 7.5, 5 mM MgCl2, 20 mM Imidazole, 1 mM DTT, 10% glycerol, and nucleotides, proline, or HF derivatives at room temperature for 10 minutes as indicated. After incubation, beads were washed twice with ice-cold wash buffer (50 mM Tris 7.5; 20 mM Imidazole; 1 mM DTT, 20% glycerol). ^3H HFol bound after washing was measured by liquid scintillation counting. Ni-NTA beads incubated with E. coli extracts lacking tagged ProRS were used as a background reference in all experiments.

[3] = de Jonge et al. 2006; cited from earlier work
[4] = test system: Th17 cell differentiation (primary murine CD4+ CD25- T cells); details: from PCT/US08/09774; read-out: 50% inhibition of Th17 cell development; cited from earlier work

SMILES: O=C(C[C@H]1NCCC[C@@H]1O)Cn1cnc2cc(Br)c(Cl)cc2c1=O (racemic) [HF, 7-bromo-6-chloro-3-[3-(3-hydroxy-2-piperidinyl)-2-oxopropyl]-4(3H)-quinazolinone]
- Type 1 collagen expression in fibroblasts in culture [1]: inhibit
- excess dermal ECM deposition (dermal ECM deposition): reduces
- competition of [3H]-HFol binding to ProRS [2]: competed
- toxicity in humans (nausea, vomiting, fatigue, possibly bleeding complications) [3]: some toxicity
- IC50 [4]: ~3 nM
